Test [1] deals with T1, IGF-1R (Homo sapiens (Human), UniProt P08069). In words: Example B-1: IGF-1R Assay (PC3 cells, IGF1 stimulation, AlphaLISA). The format is cell-based. The note with it: 200 ng/mL IGF1 stimulation, read-out: Biological Activity against IGF-1R IC50. In outline:
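Readout is AlphaLISA signal from lysed PC3 cells, expressed as % inhibition versus vehicle and EC80 controls and banded by IC50. Before lysis, the cells were starved of serum for 2 h, exposed to 3× serially diluted compound for 2 h, and stimulated for 30 min with 200 ng/mL IGF1 (final).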
For orientation: Alpha assays give light when donor and acceptor beads are brought close together.
Target sequence in this assay (P08069 31-1367): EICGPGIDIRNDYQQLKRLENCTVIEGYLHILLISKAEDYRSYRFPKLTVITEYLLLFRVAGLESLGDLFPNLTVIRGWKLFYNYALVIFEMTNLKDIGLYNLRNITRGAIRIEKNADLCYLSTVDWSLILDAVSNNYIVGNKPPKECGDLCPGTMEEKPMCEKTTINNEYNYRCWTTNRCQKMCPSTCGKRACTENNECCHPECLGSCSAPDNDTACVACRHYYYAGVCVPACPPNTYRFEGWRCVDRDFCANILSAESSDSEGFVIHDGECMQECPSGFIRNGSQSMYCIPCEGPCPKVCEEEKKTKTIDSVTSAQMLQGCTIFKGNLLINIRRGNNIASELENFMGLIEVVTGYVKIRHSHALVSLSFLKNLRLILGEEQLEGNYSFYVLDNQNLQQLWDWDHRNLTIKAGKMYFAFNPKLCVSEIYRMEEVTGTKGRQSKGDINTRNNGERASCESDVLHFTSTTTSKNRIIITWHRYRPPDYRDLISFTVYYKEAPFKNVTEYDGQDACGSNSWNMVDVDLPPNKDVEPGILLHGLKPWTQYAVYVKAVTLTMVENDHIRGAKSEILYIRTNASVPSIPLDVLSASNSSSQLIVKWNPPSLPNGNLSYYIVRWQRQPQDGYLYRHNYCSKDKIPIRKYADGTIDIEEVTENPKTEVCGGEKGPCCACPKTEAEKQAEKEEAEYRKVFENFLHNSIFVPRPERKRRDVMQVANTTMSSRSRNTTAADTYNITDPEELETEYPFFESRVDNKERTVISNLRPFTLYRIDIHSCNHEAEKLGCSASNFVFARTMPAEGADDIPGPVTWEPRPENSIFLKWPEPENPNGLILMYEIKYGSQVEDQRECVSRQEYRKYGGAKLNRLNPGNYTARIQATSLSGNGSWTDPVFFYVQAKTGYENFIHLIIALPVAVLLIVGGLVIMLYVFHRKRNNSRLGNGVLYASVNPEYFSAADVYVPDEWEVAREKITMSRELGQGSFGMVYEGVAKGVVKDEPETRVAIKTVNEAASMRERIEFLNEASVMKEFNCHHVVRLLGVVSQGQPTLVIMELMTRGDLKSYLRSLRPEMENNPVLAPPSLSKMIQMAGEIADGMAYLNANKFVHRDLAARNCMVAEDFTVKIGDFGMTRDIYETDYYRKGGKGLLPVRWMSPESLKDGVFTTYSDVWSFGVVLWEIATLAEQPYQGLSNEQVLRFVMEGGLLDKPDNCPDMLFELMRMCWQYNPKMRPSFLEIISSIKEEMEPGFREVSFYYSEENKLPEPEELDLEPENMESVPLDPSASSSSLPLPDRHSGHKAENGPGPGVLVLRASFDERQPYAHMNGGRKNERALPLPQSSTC

Test [2] addresses T1, IGF-1R. Nature of the test: Example B-2: IGF-1R Assay (PathHunter cell lines, EC80 agonist challenge). The format is cell-based. The note with it: read-out: IC50 (Biological Activity against IGF-1R). On the procedure: PathHunter cell lines were expanded from freezer stocks according to standard procedures. Cells were seeded in a total volume of 20 μL into white walled, 384-well microplates and incubated for the appropriate time prior to testing.
Cells are pre-incubated with compound followed by EC80 agonist challenge as follows: • 1. Intermediate dilution of sample stocks was performed to generate 5× sample in assay buffer. • 2. 5 μL of 5× sample was added to cells and incubated at 37° C. for 60 minutes. Vehicle concentration was 1%. • 3. 5 μL of 6×EC80 agonist in assay buffer was added to the cells and incubated at room temperature for 3 hours.
Assay signal was generated through a single addition of 12.5 or 15 μL (50% v/v) of PathHunter Detection reagent cocktail for agonist and antagonist assays respectively, followed by a one hour incubation at room temperature. Microplates were read following signal generation with a PerkinElmer Envision™ instrument for chemilumine-scent signal detection.
Compound activity was analyzed using CBIS data analysis suite (ChemInnovation, CA). Percentage inhibition was calculated using the following formula: % Inhibition=100%×(1−(mean RLU of test sample−mean RLU of vehicle control)/(mean RLU of EC80 control−mean RLU of vehicle control)). The activity for representative examples of the invention is shown in the following table, wherein A: IC50≤500 nM; B: 500 nM<IC50≤2 μM; C: […]≤10 μM; D: IC50>[…].
Target sequence in this assay (P08069 31-1367, species assumed): as the sequence (P08069 31-1367) above

pIC50: −log10 of the molar value.

Consider `COc1cc(N2CCNC3(CC3)C2)ncc1Nc1nccc(Nc2cnc3ccc(Cl)cc3c2)n1` [Compound 496, 4-(6-chloro-3-quinolylamino)-2-{6-(4,7-diaza-7-spiro[2.5]octyl)-4-methoxy-3-pyridylamino}pyrimidine], for which the pIC50 in test [1] is not below 6.30; in test [2] it was 5.70 to 6.30. Turning to `CN(C)CC1COc2cc(Nc3nccc(Nc4cc5ccccc5nc4C(N)=O)n3)ccc2O1` (stereo not shown) [Compound 171, 3-((2-((2-((dimethylamino)methyl)-2,3-dihydrobenzo[b][1,4]dioxin-6-yl)amino)pyrimidin-4-yl)amino)quinoline-2-carboxamide], the pIC50 in test [1] and in test [2] was not below 6.30 each time. For `CN(C)CC(=O)N1CCc2ncc(Nc3nccc(Nc4cnc5ccccc5c4)n3)cc21` [Compound 137, 2-(dimethylamino)-1-(6-((4-(quinolin-3-ylamino)pyrimidin-2-yl)amino)-2,3-dihydro-1H-pyrrolo[3,2-b]pyridin-1-yl)ethan-1-one], the pIC50 in test [1] and in test [2] was not below 6.30 each time. `COc1nc(C2CCN(CC#N)CC2)ccc1Nc1nccc(Nc2cc3cccc(F)c3[nH]c2=O)n1` [Compound 212, (4-{5-[4-(8-fluoro-2-oxo-1,2-dihydro-3-quinolylamino)-2-pyrimidinylamino]-6-methoxy-2-pyridyl}-1-piperidyl)acetonitrile]: the pIC50 in test [1] is not below 6.30; in test [2] it was 5.70 to 6.30. `CN(C)CC1COc2cc(Nc3nccc(Nc4cnc5cc(F)c(F)cc5c4)n3)ccc2O1` (stereo not shown) [Compound 169, 4-(6,7-difluoro-3-quinolylamino)-2-{2-[(dimethylamino)methyl]-2,3-dihydro-1,4-benzodioxin-6-ylamino}pyrimidine]: the pIC50 in test [1] and in test [2] was not below 6.30 each time. For `c1ccc2ncc(Nc3ccnc(Nc4ccc5ccn(CC6CCCCC6)c5c4)n3)cc2c1` [Compound 503, 2-[1-(cyclohexylmethyl)-6-indolylamino]-4-(3-quinolylamino)pyrimidine], the pIC50 in test [1] and in test [2] was 5.00 to 5.70 in each case. For the molecule `COc1cc(N2CCN(CC(F)F)CC2)ncc1Nc1nccc(Nc2cc3cccc(F)c3[nH]c2=O)n1` [Compound 217, 3-(2-{6-[4-(2,2-difluoroethyl)-1-piperazinyl]-4-methoxy-3-pyridylamino}-4-pyrimidinylamino)-8-fluoro-1,2-dihydro-2-quinolinone], the negative logarithm of the IC50 (pIC50) in test [1] is 5.70 to 6.30; in test [2] it was less than 5.00. The corresponding values for `CN(C)CC1COc2cc(Nc3nccc(Nc4cnc5ccccc5c4)n3)ccc2O1` (stereo not shown) [Compound 135, N2-(2-((dimethylamino)methyl)-2,3-dihydrobenzo[b][1,4]dioxin-6-yl)-N4-(quinolin-3-yl)pyrimidine-2,4-diamine] are not below 6.30 and not below 6.30.

Regarding `CN(C)CC1COc2cc(Nc3nccc(Nc4cnc5ccc(Cl)cc5c4)n3)ccc2O1` (stereo not shown) [Compound 136, N4-(6-chloroquinolin-3-yl)-N2-(2-((dimethylamino)methyl)-2,3-dihydrobenzo[b][1,4]dioxin-6-yl)pyrimidine-2,4-diamine], the pIC50 in test [1] and in test [2] was not below 6.30 throughout. As to `Clc1ccc2ncc(Nc3ccnc(Nc4ccc5c(c4)OCCO5)n3)cc2c1` [Compound 170, 4-(6-chloro-3-quinolylamino)-2-(2,3-dihydro-1,4-benzodioxin-6-ylamino)pyrimidine], the pIC50 in test [1] and in test [2] was 5.70 to 6.30 in each case. Take `c1ccc2ncc(Nc3ccnc(Nc4ccc5c(c4)OCCO5)n3)cc2c1` [Compound 505, 2-(2,3-dihydro-1,4-benzodioxin-6-ylamino)-4-(3-quinolylamino)pyrimidine]: the pIC50 in test [1] and in test [2] was not below 6.30 in each case. For the molecule `COc1cc(Nc2nccc(Nc3cnc4c(Cl)cc(F)cc4c3)n2)ccc1O[C@H]1C[C@@H](N(C)C)C1` [Compound 116, 4-(8-chloro-6-fluoro-3-quinolylamino)-2-{3-methoxy-4-[(1s,3s)-3-(dimethylamino)cyclobutoxy]phenylamino}pyrimidine], the values for the pIC50 in test [1] and in test [2] were not below 6.30 and 5.70 to 6.30, respectively. Turning to `CN(C)CC1COc2cc(Nc3nccc(Nc4cnc5ccccc5c4)n3)cnc2O1` (stereo not shown) [Compound 178, 2-{3-[(dimethylamino)methyl]-2,3-dihydro-1,4-dioxa-5-aza-7-naphthylamino}-4-(3-quinolylamino)pyrimidine], the pIC50 in test [1] and in test [2] was not below 6.30 throughout. As to `COc1cc([C@H]2CC[C@@](C)(O)CC2)ccc1Nc1nccc(Nc2cc3cccc(F)c3[nH]c2=O)n1` [Compound 216, 8-fluoro-3-(2-{2-methoxy-4-[(1r,4r)-4-hydroxy-4-methylcyclohexyl]phenylamino}-4-pyrimidinylamino)-1,2-dihydro-2-quinolinone], the pIC50 in test [1] and in test [2] was not below 6.30 throughout. For `CN(C)CC(=O)N1CCc2ccc(Nc3nccc(Nc4cnc5cc(F)c(F)cc5c4)n3)cc21` [Compound 147, 1-(6-((4-((6,7-difluoroquinolin-3-yl)amino)pyrimidin-2-yl)amino)indolin-1-yl)-2-(dimethylamino)ethan-1-one], the pIC50 in test [1] and in test [2] was 5.70 to 6.30 in each case. `COc1cc(Nc2nccc(Nc3cc4cccc(F)c4[nH]c3=O)n2)cnc1C1CCNCC1` [Compound 223, 8-fluoro-3-{2-[5-methoxy-6-(4-piperidyl)-3-pyridylamino]-4-pyrimidinylamino}-1,2-dihydro-2-quinolinone]: the pIC50 in test [1] is not below 6.30; in test [2] it was 5.70 to 6.30.

`CN(C)CC1CN(C)c2cc(Nc3nccc(Nc4cnc5cc(F)c(F)cc5c4)n3)ccc2O1` (stereo not shown) [Compound 148, N4-(6,7-difluoroquinolin-3-yl)-N2-(2-((dimethylamino)methyl)-4-methyl-3,4-dihydro-2H-benzo[b][1,4]oxazin-6-yl)pyrimidine-2,4-diamine]: the pIC50 in test [1] and in test [2] was not below 6.30 throughout.

Regarding `CN(C)CC1COc2cc(Nc3nccc(Nc4cnc5cc(F)c(F)cc5c4)n3)cnc2O1` (stereo not shown) [Compound 499, 4-(6,7-difluoro-3-quinolylamino)-2-{3-[(dimethylamino)methyl]-2,3-dihydro-1,4-dioxa-5-aza-7-naphthylamino}pyrimidine], the pIC50 in test [1] and in test [2] was 5.70 to 6.30 each time. Take `COc1cc(C2CCN(CC#N)CC2)ccc1Nc1nccc(Nc2cc3cccc(F)c3[nH]c2=O)n1` [Compound 213, (4-{4-[4-(8-fluoro-2-oxo-1,2-dihydro-3-quinolylamino)-2-pyrimidinylamino]-3-methoxyphenyl}-1-piperidyl)acetonitrile]: the pIC50 in test [1] and in test [2] was not below 6.30 in each case.

On to `CN(C)C[C@@H]1COc2cc(Nc3nccc(Nc4cnc5ccc(Cl)cc5c4)n3)ccc2O1` [Compound 145, (R)—N4-(6-chloroquinolin-3-yl)-N2-(2-((dimethylamino)methyl)-2,3-dihydrobenzo[b][1,4]dioxin-6-yl)pyrimidine-2,4-diamine], for which the pIC50 in test [1] and in test [2] was not below 6.30 throughout. `COc1cc(Nc2nccc(Nc3cc4ccccc4nc3C(N)=O)n2)ccc1O[C@H]1C[C@@H](N(C)C)C1` [Compound 297, 3-(2-{3-methoxy-4-[(1s,3s)-3-(dimethylamino)cyclobutoxy]phenylamino}-4-pyrimidinylamino)-2-quinolinecarboxamide]: the pIC50 in test [2] is 5.70 to 6.30. In the case of `COc1cc(Nc2nccc(Nc3cnc4cc(N)ccc4c3)n2)ccc1O[C@H]1C[C@@H](N(C)C)C1` [Compound 12, 4-(7-amino-3-quinolylamino)-2-{3-methoxy-4-[(1s,3s)-3-(dimethylamino)cyclobutoxy]phenylamino}pyrimidine], the pIC50 in test [1] was not below 6.30.

As for `C[C@H]1COc2ncc(Nc3ccnc(Nc4ccc(OCCCN5CCOCC5)cc4)n3)cc2O1` [Compound 106, 4-[(S)-2-methyl-2,3-dihydro-1,4-dioxa-5-aza-7-naphthylamino]-2-[p-(3-morpholinopropoxy)phenylamino]pyrimidine], in test [1], the pIC50 is 5.70 to 6.30. `COc1ccc2cc(Nc3ccnc(Nc4ccc(O[C@H]5C[C@H](N(C)C)C5)cc4)n3)cnc2c1` [Compound 355, 4-(7-methoxy-3-quinolylamino)-2-{p-[(1r,3r)-3-(dimethylamino)cyclobutoxy]phenylamino}pyrimidine]: the pIC50 in test [1] was 5.70 to 6.30. `COc1cc(Nc2nccc(Nc3cnc4c(c3)CC(C)CC4)n2)ccc1OCCCN1CCCCC1` (stereo not shown) [Compound 62, 2-[3-methoxy-4-(3-piperidinopropoxy)phenylamino]-4-(6-methyl-5,6,7,8-tetrahydro-3-quinolylamino)pyrimidine]: the pIC50 in test [1] was not below 6.30. The same measure, in the same setting: then `c1ccc2ncc(Nc3ccnc(Nc4ccc(OCCCN5CCOCC5)cc4)n3)cc2c1` [Compound 394, 2-[p-(3-morpholinopropoxy)phenylamino]-4-(3-quinolylamino)pyrimidine], with not below 6.30.

Broadly, the pIC50 is the negative decadic logarithm of the IC50, by convention in mol/L.

Values taken from patent US20250171431A1, “HETEROCYCLIC INHIBITORS OF IGF-1R FOR TREATMENT OF DISEASE” (HORIZON THERAPEUTICS IRELAND DAC, priority 2023, published 2025).
